Measured values published in paper PMC6679423 (International Journal of Molecular Sciences, 2019).
Marks after values point to notes of the source that are not given here.

How the values were obtained:
human hepatic microsomes = assay: Correlation of CYP- and FMO-linked activities with vandetanib metabolite formation in human hepatic microsomes; assay type: in vitro ADME; details: 12 human liver microsomal samples; for Correlation coefficient (r) of metabolite amount with CYP2B6 activity: (S)-mephenytoin-N-demethylase; for Correlation coefficient (r) of metabolite amount with CYP2A6 activity: coumarine-7-hydroxylase; for Correlation coefficient (r) of metabolite amount with CYP2C8 activity: paclitaxel-6α-hydroxylase; for Correlation coefficient (r) of metabolite amount with CYP3A4 activity: testosterone-6β-hydroxylase
Description: Vandetanib was from LC Laboratories (Woburn, MA, USA). Ketoconazole, NADPH, methimazol and other chemicals were all purchased from Sigma-Aldrich (St. Louis, MO, USA). The purity of all chemicals met the standards of American Chemical Society, unless noted otherwise. All animal experiments were conducted in accordance with the Regulations for the Care and Use of Laboratory Animals (311/1997, Ministry of Agriculture, Czech Republic), which follows the Declaration of Helsinki. Male Wistar rats (~125–150 g; AnLab, Czech Republic), male C57BL/6 mice ([…]; CXR Bioscience Ltd., Dundee, UK), and male New Zealand rabbits (2.5–3 kg; AnLab, Czech Republic) were employed as animal models. Animals were placed in cages in temperature- and humidity-controlled rooms, acclimatized for five days and maintained at 22 °C with a 12 h light/dark period. Standardized diet and water were provided ad libitum. Rats, mice and rabbits used to prepare microsomal fraction from untreated animals were sacrificed by cervical dislocation, livers snap-frozen in liquid nitrogen and stored at −80 °C until further processing (see below). For controls, livers of the animals were removed immediately after sacrifice, divided into small pieces (~1 g), snap-frozen in liquid nitrogen, and stored at −80 °C until isolation of microsomal fractions. Pooled microsomes were used for all in vitro experiments in the present study and prepared from 10 livers/group for all animal species following established protocols. Microsomal fractions were stored at −80 °C until analysis. Protein concentrations in the microsomal fractions were assessed using the bicinchoninic acid protein assay with bovine serum albumin as a standard. Male human hepatic microsomes (pooled sample) (sample LOT: 3043885) were from Gentest Corp. (Woburn, MA, USA). Microsomes from livers of twelve human donors were obtained from Gentest Corp. (Woburn, MA, USA) (cat. no. HG43–1, HG103, HG74, HG93, HG24, HG27, HG23, HG32, HK31, HK34, HG03, and HG42). Each human microsomal sample has been characterized for CYP, FMO and protein contents and specific CYP activities by Gentest Corp. We reanalyzed each microsomal preparation for specific CYP, NADPH:CYP reductase (POR) and FMO activities by assays described in the protocols of Gentest Corp. Our data were similar to those reported by Gentest Corp. in their specification sheets. The content of CYP, specific CYP and FMO activities in each human hepatic microsomes [phenacetin-O-deethylation (CYP1A2), coumarin-7-hydroxylation (CYP2A6), (S)-mephenytoin-N-demethylase (CYP2B6), paclitaxel-6α-hydroxylation (CYP2C8), diclofenac-4’-hydroxylation (CYP2C9), (S)-mephenytoin-4′-hydroxylation (CYP2C19), bufuralol-1’-hydroxylation (CYP2D6), chlorzoxazone-6-hydroxylation (CYP2E1), testosterone-6β-hydroxylation (CYP3A4), lauric acid-12-hydroxylation (CYP4A), methyl-p-tolyl sulfide oxidase (FMO)] are shown in Table 2. Human recombinant enzymes were used in the forms of Supersomes™ and obtained from Gentest Corp. In Supersomes™ microsomal fractions were isolated from insect cells that are transfected with baculovirus constructs containing cDNA of human CYP enzymes (CYP1A1/2, 1B1, 2A6, 2B6, 2C8/9/18/19/, 2D6, 2E1, 3A4). These Supersomes™ also express NADPH:CYP oxidoreductase (POR). However, because they are microsomes (particles of broken endoplasmic reticulum), other enzymes (proteins) of the endoplasmic reticulum membrane (like NADH:cytochrome b5 reductase and cytochrome b5) are also expressed at basal levels in these Supersomes™. We also utilized Supersomes™ which over-expressed cytochrome b5, in a molar ratio of CYP to cytochrome b5 of 1 to 5. In Supersomes™ where cytochrome b5 was not over-expressed (see above) pure cytochrome b5 was added to reach a molar ratio of CYP to cytochrome b5 of 1 to 5. Reconstitution of Supersomes™ with purified cytochrome b5 was performed as described previously. […]

human liver microsomes = assay: Vandetanib metabolite formation by hepatic microsomes of 12 human donors; assay type: in vitro ADME

- Correlation coefficient (r) of metabolite amount with Cyt b5 (human hepatic microsomes): −0.114
- Correlation coefficient (r) of metabolite amount with POR (human hepatic microsomes): 0.700
- Correlation coefficient (r) of metabolite amount with Total CYPs (human hepatic microsomes): 0.786 **
- Correlation coefficient (r) of metabolite amount with CYP2C19 activity (human hepatic microsomes; (S)-mephenytoin-4′-hydroxylase): −0.168
- Correlation coefficient (r) of metabolite amount with CYP2B6 activity (human hepatic microsomes): 0.826
- Correlation coefficient (r) of metabolite amount with CYP2B6 activity (human hepatic microsomes; listed as M1): 0.826 ***
- Correlation coefficient (r) of metabolite amount with CYP2D6 activity (human hepatic microsomes; bufuralol-1′-hydroxylase): 0.165
- Correlation coefficient (r) of metabolite amount with CYP2E1 activity (human hepatic microsomes; chlorzoxazone-6-hydroxylase): 0.043
- Correlation coefficient (r) of metabolite amount with CYP2A6 activity (human hepatic microsomes): 0.778
- Correlation coefficient (r) of metabolite amount with CYP2A6 activity (human hepatic microsomes; listed as M1): 0.778 **
- Correlation coefficient (r) of metabolite amount with CYP2C9 activity (human hepatic microsomes; diclofenac-4′-hydroxylase): −0.034
- Correlation coefficient (r) of metabolite amount with FMO activity (human hepatic microsomes; methyl-p-tolyl sulfide oxidase): 0.270
- Correlation coefficient (r) of metabolite amount with CYP2C8 activity (human hepatic microsomes): 0.747
- Correlation coefficient (r) of metabolite amount with CYP2C8 activity (human hepatic microsomes; listed as M1): 0.747 **
- Correlation coefficient (r) of metabolite amount with CYP1A2 activity (human hepatic microsomes; phenacetin-O-deethylase): 0.018
- Correlation coefficient (r) of metabolite amount with CYP3A4 activity (human hepatic microsomes): 0.984
- Correlation coefficient (r) of metabolite amount with CYP3A4 activity (human hepatic microsomes; listed as M1): 0.984 ***
- N-desmethylvandetanib (M1) formed (human liver microsomes; human hepatic microsomal sample HK23): 4.137 peak area/(mg protein × min)
- N-desmethylvandetanib (M1) formed (human liver microsomes; human hepatic microsomal sample HK27): 1.762 peak area/(mg protein × min)
Compound: COc1cc2c(Nc3ccc(Br)cc3F)ncnc2cc1OCC1CCNCC1 [N-desmethylvandetanib]
